Test results published in patent US20260015350A1, “AZAQUINAZOLINE PAN-KRAS INHIBITORS” (Mirati Therapeutics, Inc., priority 2022, published 2026).

What was measured:
KRas^WT = biological target: T1, KRas^WT (Homo sapiens, UniProt P01116); assay: KRas binding assay (TR-FRET tracer displacement), KRas WT; conditions: TR-FRET tracer displacement, KRas WT
T1 construct: Biotinylated KRas (corresponding to amino acids 1-169, produced at Accelegan Inc.); biotin (biotinylated); purchased Accelegan Inc

KRas^G12A = biological target: T2, KRas^G12A (Homo sapiens, UniProt P01116, G12A); assay: KRas binding assay (TR-FRET tracer displacement), KRas G12A; conditions: TR-FRET tracer displacement, KRas G12A
T2 construct: Biotinylated KRas (corresponding to amino acids 1-169, produced at Accelegan Inc.); biotin (biotinylated); purchased Accelegan Inc
T2 sequence (P01116 1-169 isoform P01116-2 G12A): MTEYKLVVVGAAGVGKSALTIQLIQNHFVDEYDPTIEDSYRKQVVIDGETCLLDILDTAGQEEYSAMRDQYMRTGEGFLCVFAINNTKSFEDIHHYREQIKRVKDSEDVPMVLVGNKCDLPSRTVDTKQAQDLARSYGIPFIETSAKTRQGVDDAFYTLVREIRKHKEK

KRas^G12C = biological target: T3, KRas^G12C (Homo sapiens, UniProt P01116, G12C); assay: KRas binding assay (TR-FRET tracer displacement), KRas G12C; conditions: TR-FRET tracer displacement, KRas G12C
T3 construct: Biotinylated KRas (corresponding to amino acids 1-169, produced at Accelegan Inc.); biotin (biotinylated); purchased Accelegan Inc
T3 sequence (P01116 1-169 isoform P01116-2 G12C): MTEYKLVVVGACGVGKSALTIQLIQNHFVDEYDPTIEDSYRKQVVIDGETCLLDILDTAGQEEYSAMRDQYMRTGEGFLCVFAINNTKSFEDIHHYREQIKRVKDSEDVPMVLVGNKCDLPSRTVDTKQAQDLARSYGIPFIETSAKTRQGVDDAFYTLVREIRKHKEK

KRas^G12D = biological target: T4, KRas^G12D (Homo sapiens, UniProt P01116, G12D); assay: KRas binding assay (TR-FRET tracer displacement), KRas G12D
T4 construct: Biotinylated KRas (corresponding to amino acids 1-169, produced at Accelegan Inc.); biotin (biotinylated); purchased Accelegan Inc
T4 sequence (P01116 1-169 isoform P01116-2 G12D): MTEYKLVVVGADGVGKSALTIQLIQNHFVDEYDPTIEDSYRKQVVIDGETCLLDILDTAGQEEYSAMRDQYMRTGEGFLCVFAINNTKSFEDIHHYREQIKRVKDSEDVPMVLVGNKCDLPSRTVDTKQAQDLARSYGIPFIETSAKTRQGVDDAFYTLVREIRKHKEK

KRas^G12R = biological target: T5, KRas^G12R (Homo sapiens, UniProt P01116, G12R); assay: KRas binding assay (TR-FRET tracer displacement), KRas G12R
T5 construct: Biotinylated KRas (corresponding to amino acids 1-169, produced at Accelegan Inc.); biotin (biotinylated); purchased Accelegan Inc
T5 sequence (P01116 1-169 isoform P01116-2 G12R): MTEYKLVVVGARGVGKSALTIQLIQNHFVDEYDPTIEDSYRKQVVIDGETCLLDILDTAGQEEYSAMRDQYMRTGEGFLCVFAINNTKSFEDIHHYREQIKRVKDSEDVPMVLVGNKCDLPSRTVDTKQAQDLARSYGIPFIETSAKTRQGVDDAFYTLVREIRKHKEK

KRas^G12S = biological target: T6, KRas^G12S (Homo sapiens, UniProt P01116, G12S); assay: KRas binding assay (TR-FRET tracer displacement), KRas G12S; conditions: TR-FRET tracer displacement, KRas G12S
T6 construct: Biotinylated KRas (corresponding to amino acids 1-169, produced at Accelegan Inc.); biotin (biotinylated); purchased Accelegan Inc
T6 sequence (P01116 1-169 isoform P01116-2 G12S): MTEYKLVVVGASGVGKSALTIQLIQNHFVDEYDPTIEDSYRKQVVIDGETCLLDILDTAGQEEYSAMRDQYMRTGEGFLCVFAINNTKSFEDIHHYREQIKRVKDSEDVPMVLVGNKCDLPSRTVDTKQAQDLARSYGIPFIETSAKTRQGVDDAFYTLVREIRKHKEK

KRas^G12V = biological target: T7, KRas^G12V (Homo sapiens, UniProt P01116, G12V); assay: KRas binding assay (TR-FRET tracer displacement), KRas G12V
T7 construct: Biotinylated KRas (corresponding to amino acids 1-169, produced at Accelegan Inc.); biotin (biotinylated); purchased Accelegan Inc
T7 sequence (P01116 1-169 isoform P01116-2 G12V): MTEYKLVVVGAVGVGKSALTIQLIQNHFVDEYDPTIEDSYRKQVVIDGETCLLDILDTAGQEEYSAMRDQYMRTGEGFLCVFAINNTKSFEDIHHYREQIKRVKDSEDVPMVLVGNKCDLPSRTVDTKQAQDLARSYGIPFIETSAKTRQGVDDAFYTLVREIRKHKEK

KRas^G13D = biological target: T8, KRas^G13D (Homo sapiens, UniProt P01116, G13D); assay: KRas binding assay (TR-FRET tracer displacement), KRas G13D; conditions: TR-FRET tracer displacement, KRas G13D
T8 construct: Biotinylated KRas (corresponding to amino acids 1-169, produced at Accelegan Inc.); biotin (biotinylated); purchased Accelegan Inc
T8 sequence (P01116 1-169 isoform P01116-2 G13D): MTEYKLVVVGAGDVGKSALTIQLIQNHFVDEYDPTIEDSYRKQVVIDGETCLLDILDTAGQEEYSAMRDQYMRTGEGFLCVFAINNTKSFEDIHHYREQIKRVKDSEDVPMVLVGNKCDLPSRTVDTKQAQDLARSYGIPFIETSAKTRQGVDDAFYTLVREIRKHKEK

KRas^Q61H = biological target: T9, KRas^Q61H (Homo sapiens, UniProt P01116, Q61H); assay: KRas binding assay (TR-FRET tracer displacement), KRas Q61H; conditions: TR-FRET tracer displacement, KRas Q61H
T9 construct: Biotinylated KRas (corresponding to amino acids 1-169, produced at Accelegan Inc.); biotin (biotinylated); purchased Accelegan Inc
T9 sequence (P01116 1-169 isoform P01116-2 Q61H): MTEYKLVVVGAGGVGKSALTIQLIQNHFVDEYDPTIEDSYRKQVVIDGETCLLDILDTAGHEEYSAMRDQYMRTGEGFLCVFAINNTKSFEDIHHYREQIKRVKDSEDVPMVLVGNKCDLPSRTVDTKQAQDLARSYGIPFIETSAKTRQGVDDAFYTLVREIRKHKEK

[1] = test system: KRas-mediated phosphorylation of ERK in AsPC-1 cells; assay: Inhibition of KRas-mediated phosphorylation of ERK (Cisbio HTRF pERK), AsPC-1 cells; type: cell-based; conditions: Homo sapiens; for inhibition at 0.1 µM: ASPC1, 3 h, single point, 100 nM compound, 3 hrs, AsPC-1 cells; for IC50: ASPC1, AsPC-1 cells, HTRF pERK
Method in brief: (§1)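 Compound treatment lasts 3 hrs on 6,000 seeded cells, testing 10 doses from a 10 uM top concentration in 3-fold decrements at 0.8% final DMSO. Trametinib at 0.2 uM defines the Min signal. Detection is HTRF on cold-lysed cell extracts.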

[2] = test system: KRas-mediated phosphorylation of ERK in H727 cells; assay: Inhibition of KRas-mediated phosphorylation of ERK (Cisbio HTRF pERK), H727 cells; type: cell-based; conditions: Homo sapiens; for inhibition at 0.1 µM: NCI-H727, 3 h, single point, 100 nM compound, 3 hrs, H727 cells; for IC50: NCI-H727, H727 cells, HTRF pERK
Method in brief: as §1

T1 sequence (P01116 1-169 isoform P01116-2): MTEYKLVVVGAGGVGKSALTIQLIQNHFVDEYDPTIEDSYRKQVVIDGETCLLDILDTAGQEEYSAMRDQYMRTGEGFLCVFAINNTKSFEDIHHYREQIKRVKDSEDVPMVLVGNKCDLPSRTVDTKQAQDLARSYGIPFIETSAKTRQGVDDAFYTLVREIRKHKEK

| Structure (SMILES) | IC50 (KRas^WT) | IC50 (KRas^G12A) | IC50 (KRas^G12C) | IC50 (KRas^G12D) | IC50 (KRas^G12R) | IC50 (KRas^G12S) | IC50 (KRas^G12V) | IC50 (KRas^G13D) | IC50 (KRas^Q61H) | inhibition at 0.1 µM [1] | inhibition at 0.1 µM [2] | IC50 [1] | IC50 [2] |
| --- | --- | --- | --- | --- | --- | --- | --- | --- | --- | --- | --- | --- | --- |
| Cc1c(O)cc(-c2ncc3c(N4C[C@@H]5C[C@H](C4)[C@H](O)C5)nc(OC[C@@]45CCCN4C[C@H](F)C5)nc3c2F)c2ccccc12 [Example 790, (1R,5R,6R)-3-(8-fluoro-2-(((2R,7aS)-2-fluorohexahydro-1H-pyrrolizin-7a-yl)methoxy)-7-(3-hydroxy-4-methylnaphthalen-1-yl)pyrido[4,3-d]pyrimidin-4-yl)-3-azabicyclo[3.2.1]octan-6-ol] | 10600 nM | 8020 nM | 9220 nM | 11700 nM | 5650 nM | 5660 nM | 3740 nM | 7770 nM | 11000 nM | 9% | 15% |  |  |
| Cc1cc2[nH]ncc2c(-c2ncc3c(N4CCCn5nc(C(=O)N(C)C)cc5C4)nc(OCC45CCCN4CCC5)nc3c2F)c1C [Example 730, 5-(7-(5,6-dimethyl-1H-indazol-4-yl)-8-fluoro-2-((hexahydro-1H-pyrrolizin-7a-yl)methoxy)pyrido[4,3-d]pyrimidin-4-yl)-N,N-dimethyl-5,6,7,8-tetrahydro-4H-pyrazolo[1,5-a][1,4]diazepine-2-carboxamide] | 343 nM | 251 nM | 131 nM | 35 nM | 203 nM | 113 nM | 75 nM | 513 nM | 444 nM |  |  | > 10000 nM | > 10000 nM |
| O=C1NCC2(CCCN(c3nc(OCC45CCCN4CCC5)nc4c(F)c(-c5cc(O)cc(Cl)c5C5CC5)ncc34)C2)N1 (stereo not drawn) [Example 741, 7-(7-(3-chloro-2-cyclopropyl-5-hydroxyphenyl)-8-fluoro-2-((hexahydro-1H-pyrrolizin-7a-yl)methoxy)pyrido[4,3-d]pyrimidin-4-yl)-1,3,7-triazaspiro[4.5]decan-2-one] | < 2 nM | 2 nM | < 2 nM | < 2 nM | < 2 nM | < 2 nM | < 2 nM | 3 nM | < 2 nM |  |  | > 10000 nM | > 10000 nM |
| Cc1cc2[nH]nnc2c(-c2ncc3c(N4CCCC5(CNS(=O)(=O)N5)C4)nc(OCC45CCCN4CCC5)nc3c2F)c1C (stereo not drawn) [Example 855, 7-(7-(5,6-dimethyl-1H-benzo[d][1,2,3]triazol-4-yl)-8-fluoro-2-((tetrahydro-1H-pyrrolizin-7a(5H)-yl)methoxy)pyrido[4,3-d]pyrimidin-4-yl)-2-thia-1,3,7-triazaspiro[4.5]decane 2,2-dioxide] | 26 nM | 21 nM | 25 nM | 10 nM | 31 nM | 18 nM | 16 nM | 12 nM | 23 nM |  |  | > 10000 nM | > 10000 nM |
| Cc1cc2[nH]ncc2c(-c2ncc3c(N4CC5C(=O)NC(=O)C5C4)nc(OCC45CCCN4CCC5)nc3c2F)c1C (stereo not drawn) [Example 726, 5-(7-(5,6-dimethyl-1H-indazol-4-yl)-8-fluoro-2-((hexahydro-1H-pyrrolizin-7a-yl)methoxy)pyrido[4,3-d]pyrimidin-4-yl)tetrahydropyrrolo[3,4-c]pyrrole-1,3(2H,3aH)-dione] | 145 nM | 242 nM | 208 nM | 58 nM | 344 nM | 68 nM | 131 nM | 138 nM | 177 nM |  |  | > 10000 nM | > 10000 nM |
| Cc1cc2[nH]ncc2c(-c2ncc3c(N4CCCC5(CC(O)C5)C4)nc(OCC45CCCN4CCC5)nc3c2F)c1C (stereo not drawn) [Example 727, 6-(7-(5,6-dimethyl-1H-indazol-4-yl)-8-fluoro-2-((hexahydro-1H-pyrrolizin-7a-yl)methoxy)pyrido[4,3-d]pyrimidin-4-yl)-6-azaspiro[3.5]nonan-2-ol] | 657 nM | 516 nM | 421 nM | 634 nM | 520 nM | 540 nM | 333 nM | 888 nM | 947 nM |  |  | > 10000 nM | > 10000 nM |
| Oc1cc(Cl)c(C2CC2)c(-c2ncc3c(N4CCC[C@]5(C4)C[C@@H](O)C5)nc(OCC45CCCN4CCC5)nc3c2F)c1 [Example 743, (2r,4s)-6-(7-(3-chloro-2-cyclopropyl-5-hydroxyphenyl)-8-fluoro-2-((tetrahydro-1H-pyrrolizin-7a(5H)-yl)methoxy)pyrido[4,3-d]pyrimidin-4-yl)-6-azaspiro[3.5]nonan-2-ol] | 9 nM | 8 nM | 6 nM | 8 nM | 20 nM | 8 nM | 3 nM | 9 nM | 7 nM |  |  | 3690 nM | 1100 nM |
| Cc1cc2[nH]ncc2c(-c2ncc3c(N4CCC[C@]5(C4)NC(=O)NC5=O)nc(OCC4(CN(C)C)CC4)nc3c2F)c1C [Example 732, (5R)-7-(7-(5,6-dimethyl-1H-indazol-4-yl)-2-((1-((dimethylamino)methyl)cyclopropyl)methoxy)-8-fluoropyrido[4,3-d]pyrimidin-4-yl)-1,3,7-triazaspiro[4.5]decane-2,4-dione] | 50 nM | 61 nM | 43 nM | 113 nM | 47 nM | 63 nM | 31 nM | 60 nM | 79 nM |  |  | > 10000 nM | > 10000 nM |
| Oc1cc(-c2ncc3c(N4C[C@@H]5C[C@H](C4)[C@H](O)C5)nc(OC[C@@]45CCCN4C[C@H](F)C5)nc3c2F)c2ccccc2c1C(F)(F)F [Example 782, (1R,5R,6R)-3-(8-fluoro-2-(((2R,7aS)-2-fluorohexahydro-1H-pyrrolizin-7a-yl)methoxy)-7-(3-hydroxy-4-(trifluoromethyl)naphthalen-1-yl)pyrido[4,3-d]pyrimidin-4-yl)-3-azabicyclo[3.2.1]octan-6-ol] | 4220 nM | 4370 nM | 2780 nM | 4650 nM | 3740 nM | 2570 nM | 2040 nM | 2550 nM | 4050 nM | 5% | -11% |  |  |
| Oc1cc(-c2ncc3c(N4C[C@@H]5C[C@H](C4)[C@H](O)C5)nc(OC[C@@]45CCCN4C[C@H](F)C5)nc3c2F)c2ccccc2c1Cl [Example 764, (1R,5R,6R)-3-(7-(4-chloro-3-hydroxynaphthalen-1-yl)-8-fluoro-2-(((2R,7aS)-2-fluorohexahydro-1H-pyrrolizin-7a-yl)methoxy)pyrido[4,3-d]pyrimidin-4-yl)-3-azabicyclo[3.2.1]octan-6-ol] | 3090 nM | 2410 nM | 2390 nM | 5530 nM | 3120 nM | 1690 nM | 1660 nM | 2410 nM | 3930 nM |  |  | > 10000 nM | > 10000 nM |
| O=C1NC(=O)C2(CCCN(c3nc(OC[C@@]45CCCN4C[C@H](F)C5)nc4c(F)c(-c5c6ccccc6cc6[nH]ncc56)ncc34)C2)N1 (stereo partly drawn) [Example 759, 7-(7-(1H-benzo[f]indazol-4-yl)-8-fluoro-2-(((2R,7aS)-2-fluorohexahydro-1H-pyrrolizin-7a-yl)methoxy)pyrido[4,3-d]pyrimidin-4-yl)-1,3,7-triazaspiro[4.5]decane-2,4-dione] | 8 nM | 8 nM | 7 nM | 8 nM | 6 nM | 7 nM | 4 nM | 7 nM | 5 nM |  |  | > 10000 nM | > 10000 nM |
| CC1(O)COCCN(c2nc(OCC34CCCN3CCC4)nc3c(F)c(-c4cc(O)cc(Cl)c4C4CC4)ncc23)C1 (racemic) [Example 740, rac-(R)-4-(7-(3-chloro-2-cyclopropyl-5-hydroxyphenyl)-8-fluoro-2-((tetrahydro-1H-pyrrolizin-7a(5H)-yl)methoxy)pyrido[4,3-d]pyrimidin-4-yl)-6-methyl-1,4-oxazepan-6-ol] | 9 nM | 10 nM | 7 nM | 4 nM | 11 nM | 9 nM | 5 nM | 8 nM | 6 nM |  |  | 2630 nM | 3160 nM |
